Measured values taken from patent US4772589A, “Etoposide solution in NMP” (Bristol-Myers, priority 1986, dated 1988).
In brackets after ≈: the same amount, converted by molar mass.

Legend:
[1] = water, ethanol, ether, chloroform, benzene, ethyl acetate, and carbon disulfide; cited from earlier work
[2] = Etoposide solubility in various solvents; format: physicochemical
Description: The high etoposide concentration achievable renders the solution useful as gelatin capsule fill. Table III compares the solubility of etoposide in various solvents.

[3] = Crystallization on dilution with water or parenteral vehicle
[4] = oral gelatin capsule vs IV; cited from earlier work

SMILES	Miscibility [1]	solubility ([2]; 1-methyl-2-pyrrolidinone, organic solvent or mixture, solvent: 1-Methyl-2-pyrrolidinone) [mg/mL]	solubility ([2]; benzyl alcohol, organic solvent or mixture, solvent: Benzyl Alcohol) [mg/mL]	solubility ([2]; dimethylisosorbide, organic solvent or mixture, solvent: Dimethylisosorbide) [mg/mL]	solubility ([2]; ethanol, organic solvent or mixture, solvent: Ethanol) [mg/mL]	solubility ([2]; propylene glycol, organic solvent or mixture, solvent: Propylene Glycol) [mg/mL]	solubility ([2]; water, solvent: Water) [mg/mL]	Crystallization on dilution with water ([3]; solution in 1-ethyl-2-pyrrolidinone, diluted with water to 0.5-5 mg/ml)	Crystallization on dilution with water ([3]; solution in 2-pyrrolidinone, diluted with water to 0.5-5 mg/ml)	Crystallization on dilution with water ([3]; solution in dimethylacetamide, diluted with water to 0.5-5 mg/ml)	Crystallization on dilution with water ([3]; solution in dimethylformamide, diluted with water to 0.5-5 mg/ml)	Crystallization on dilution with water ([3]; solution in dimethylisosorbide, diluted with water to 0.5-5 mg/ml)	Crystallization on dilution with water ([3]; solution in ethanol, diluted with water to 0.5-5 mg/ml)	Crystallization on dilution with water ([3]; solution in polyethylene glycol-300, diluted with water to 0.5-5 mg/ml)	Crystallization on dilution with water ([3]; solution in propylene glycol, diluted with water to 0.5-5 mg/ml)	Gelatin capsule dose relative to IV dose for equivalent blood level [4]
CN1CCCC1=O [1-Methyl-2-pyrrolidinone, 1-methyl-2-pyrrolidinone]	miscible															
COc1cc([C@@H]2c3cc4c(cc3[C@@H](O[C@@H]3O[C@@H]5CO[C@@H](C)O[C@H]5[C@H](O)[C@H]3O)[C@H]3COC(=O)[C@H]23)OCO4)cc(OC)c1O [etoposide, 4'-demethylepipodophyllotoxin-9-(4,6-O(R)-ethylidine-β-D-glucopyranoside)]		> 500	104 (≈ 177 mM)	320 (≈ 544 mM)	< 1	11 (≈ 18.7 mM)	0.1 (≈ 0.17 mM)	rapid deposit of etoposide crystals	rapid deposit of etoposide crystals	rapid deposit of etoposide crystals	rapid deposit of etoposide crystals	rapid deposit of etoposide crystals	rapid deposit of etoposide crystals	rapid deposit of etoposide crystals	rapid deposit of etoposide crystals	twice as high
